Entries after “also recorded” stand apart in the source; their conditions may differ.
Tests used:
[1] = system: total cell migration into air pouch exudates; experiment: Mouse dorsal air pouch model: total cell migration; format: in vivo, C57/B16 mice; settings: 100 ng docosanoid intra-pouch, 100 ng TNFα, 4 hours after TNFα
Source text: (§1) Pure 17R-hydroxy DHA (17R-HDHA) was purchased from Caymen Chemicals (Ann Arbor, Mich.). Docosanoids 17-hydroxy-DPAn-6 (17-HDPAn-6) and 10,17-dihydroxyDPAn-6 (10,17-HDPAn-6) were synthesized biogenically from DPAn-6 (NuChek Prep, Elysian, Minn.) using soybean 15-lipoxygenase (Sigma-Aldrich) and purified by HPLC as described in Example 2. Organic solvents were evaporated and the compounds were re-dissolved in phosphate buffered saline (PBS), filter sterilized and concentrations were adjusted to 1000 ng/ml using molar extinction coefficients of 28,000 and 40,000 M^−1cm^−1 for the mono- and dihydroxy docosanoids, respectively. Female C57/B16 mice (n=10 mice per group) were injected with sterile air subcutaneously in the back to initiate dorsal air pouches. Six days later, 0.9 ml sterile PBS followed by 100 ng docosanoid in 0.1 ml PBS or PBS alone were administered by intra-pouch injection. This injection was followed within 5 min by intra-pouch injection of 100 ng of mouse recombinant TNFα (Peprotech, Inc, NJ, USA) in 0.1 ml PBS. Control animals received no TNFα. As a positive control, 2 mg/kg indomethacin (Calbiochem, San Diego, Calif.) was administered intraperitoneally 30 min prior to administration of TNFα. Four hours after TNFα administration, air pouch exudates were removed and cells were stained with Turk's solution and counted. […]

IL-1β = experiment: Mouse dorsal air pouch model: IL-1β in exudates; format: in vivo, C57/B16 mice; settings: 100 ng docosanoid intra-pouch, 100 ng TNFα, 4 hours after TNFα, ELISA
Source text: as §1

[2] = system: macrophage chemotactic protein-1 (MCP-1); experiment: Mouse dorsal air pouch model: MCP-1 in exudates; format: in vivo, C57/B16 mice; settings: 100 ng docosanoid intra-pouch, 100 ng TNFα, 4 hours after TNFα, ELISA
Source text: as §1

[3] = system: human T lymphocytes stimulated with anti-CD3/anti-CD28 antibodies; experiment: TNFα secretion by human T lymphocytes; format: cell-based; settings: 6 hrs pretreatment, 41 hrs on anti-CD3/anti-CD28 coated wells, ELISA; difference at 10 nM p=0.037
Experimental: FIG. 22A: Effect of Docosanoids on TNFα Secretion by Human T Lymphocytes. The assay was performed essentially as described in Ariel et al, 2005. Briefly, human peripheral blood mononuclear cells were isolated from venous blood by Ficoll-Paque™ Plus (Amersham biosciences) gradient. T lymphocytes were isolated using a human T cell enrichment column (R&D Systems) per manufacturer's instructions. Purified T cells were treated with 10,17-dihydroxy DPAn-6 or 10,17-dihydroxy DHA or vehicle (0.05% ethanol) in RPMI-1640 media containing 10% heat inactivated fetal bovine serum for 6 hrs at 37° C. Lymphocytes (200,000 cells in 200 μl media per well) were then transferred to 96-well plates coated with both anti-CD3 antibody and anti-CD28 antibody (100 μl of 2 μg/ml of each antibody overnight to coat wells) and incubated for 41 hrs. TNFα concentrations were determined in cell supernatants by ELISA (R&D Systems). Group means±stdev (n=4) were compared by Student's t test. *p<0.05 and **p<0.01 compared to control; # indicates statistical difference (p=0.037) between the groups treated with 10,17-dihydroxy DPAn-6 and 10,17-dihydroxy DHA at the 10 nM concentrations.

[4] = system: Carrageenan-induced hind paw edema; experiment: Rat paw edema study with LCPUFA-containing diets; format: in vivo, Sprague Dawley rats; settings: diets fed 4 weeks, 1% carrageenan, 3 hours post-injection, Day 28
Experimental: Adult, male, Sprague Dawley rats (n=10/treatment group) were fed modified AIN-76 diets formulated to include 1.2% DHA, 1.2% DHA+0.44% DPAn-6, or 1.2% DHA+0.46% arachidonic acid (ARA) for 4 weeks. Carrageenan (1%) was used to induce hind paw edema on Day 14 (left paw) and Day 28 (right paw) of feeding. Edema was measured plethysmographically using water displacement 3 hours post-injection. Similar results were obtained on day 14. *p≦0.05.

Soybean 15-lipoxygenase = molecular target: T1, Soybean 15-lipoxygenase (Glycine max, UniProt P08170); experiment: 15-lipoxygenase reaction with LCPUFA substrates; format: biochemical; settings: 100 μM fatty acid, 4 μg/ml enzyme, 0.05M sodium borate buffer pH 9.0, 0° C., absorbance at 238 nm
T1 construct: purchased Sigma-Aldrich
T1 sequence (P08170 1-839): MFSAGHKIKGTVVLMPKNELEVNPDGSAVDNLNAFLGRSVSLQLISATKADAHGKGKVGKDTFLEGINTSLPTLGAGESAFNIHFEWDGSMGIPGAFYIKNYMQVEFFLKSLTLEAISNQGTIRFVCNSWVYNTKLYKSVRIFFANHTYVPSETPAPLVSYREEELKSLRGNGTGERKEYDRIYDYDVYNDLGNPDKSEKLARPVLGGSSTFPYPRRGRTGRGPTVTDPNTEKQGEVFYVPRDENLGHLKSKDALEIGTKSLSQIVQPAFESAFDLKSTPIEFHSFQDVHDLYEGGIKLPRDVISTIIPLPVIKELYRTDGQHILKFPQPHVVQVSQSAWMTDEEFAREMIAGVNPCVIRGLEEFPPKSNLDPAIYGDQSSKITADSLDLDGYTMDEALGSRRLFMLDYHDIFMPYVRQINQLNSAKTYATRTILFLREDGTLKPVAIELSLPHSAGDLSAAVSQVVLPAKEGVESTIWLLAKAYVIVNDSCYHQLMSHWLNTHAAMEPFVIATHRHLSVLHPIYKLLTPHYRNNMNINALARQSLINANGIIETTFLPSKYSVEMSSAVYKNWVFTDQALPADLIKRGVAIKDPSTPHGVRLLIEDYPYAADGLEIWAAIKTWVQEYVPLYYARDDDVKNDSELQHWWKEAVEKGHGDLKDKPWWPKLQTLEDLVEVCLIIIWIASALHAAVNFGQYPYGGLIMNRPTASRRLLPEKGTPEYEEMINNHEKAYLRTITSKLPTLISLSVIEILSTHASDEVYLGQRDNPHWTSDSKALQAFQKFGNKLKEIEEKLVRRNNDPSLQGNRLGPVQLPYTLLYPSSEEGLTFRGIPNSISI
Experimental: Soybean 15-lipoxygenase (Sigma-Aldrich, St. Louis, Mo.) at a final concentration of 4 μg/ml was mixed into 100 μM solutions of DHA, DPAn-6, or DPAn-3 (NuChek Prep, Elysian, Minn.) in 0.05M sodium borate buffer, pH 9.0, and the reaction mixtures were incubated at 0° C. Appearance of the mono-hydroxy conjugated diene derivatives of the fatty acids was monitored through absorbance at 238 nm. Conjugated diene products were quantified using an extinction coefficient of 28,000 M^−1cm^−1 (Shimizu et al; Methods in Enzymology, 1990 Vol 187, 296-306). As shown in Example. 1, 100% of the DPAn-6 was efficiently converted to its conjugated diene derivative under these conditions, whereas about 85% of DPAn-3 and 50% of DHA were converted to their respective conjugated diene (mono-hydroxy) derivative by the 15-lipoxygenase. No appreciable accumulation of the dihydroxy derivatives occurred under these reaction conditions.

[5] = system: inflammatory cytokine production; experiment: Consumption of LCPUFA oils: inflammatory cytokine production; format: in vivo; settings: consumption of the oil; DHA dose approximately three times higher in DHA alone than in the DHA+DPAn-6 oil
[6] = system: Inflammatory eicosanoid secretion; experiment: Consumption of LCPUFA oils: inflammatory eicosanoid secretion; format: in vivo; settings: compared to DHA alone

Compound	total number of cells in the air pouch (cell infiltration) [1]	secretion of IL-1β in air pouch exudates (IL-1β)	secretion of MCP-1 in air pouch exudates [2]	converted to conjugated diene (mono-hydroxy) derivative by the 15-lipoxygenase (Soybean 15-lipoxygenase)	further results
10,17-dihydroxy DPAn-6	significant reductions	significant reductions; also recorded: significantly larger than with that produced by either the DHA oxylipin derivative or indomethacin	significant reductions; also recorded: larger inhibition of MCP-1 secretion than indomethacin	–	reducing TNFα secretion by T lymphocytes [3]: more potent than the DHA analog (10,17,dihydroxy DHA)
CCCCCC(O)/C=C/C=C\C/C=C\C/C=C\C/C=C\CCC(=O)O (stereo not shown) [17-hydroxy DPAn-6]	significant reductions; also recorded: more potent than both 17R-hydroxy DHA and indomethacin	significant reductions	significant reductions; also recorded: larger inhibition of MCP-1 secretion than indomethacin	–	–
CCCCC/C=C\C/C=C\C/C=C\C/C=C\CCCC(=O)O [ARA, arachidonic acid (C20:4n-6)]	–	–	–	–	reduction in edema volume [4]: reversed the anti-inflammatory activity of DHA
CC/C=C\C/C=C\C/C=C\C/C=C\C/C=C\C/C=C\CCC(=O)O [DHA, docosahexaenoic acid (C22:6n-3), reference compound]	–	–	–	~50%	reduction in inflammatory cytokine production [5]: 13-29%
CC/C=C\C/C=C\C/C=C\C/C=C\C/C=C\CCCCCC(=O)O [DPAn-3, docosapentaenoic acid (C22:5n-3)]	–	–	–	about 85%	–
docosapentaenoic acid (C22:5n-6) [DPAn-6]	–	–	–	100%	Inflammatory eicosanoid secretion [6]: significantly reduced
